Laboratory results as given in ChEMBL document CHEMBL1201862, “PubChem BioAssay data set” (2004).
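Cells were grown in 96-well plates and exposed to each compound for 48 hours at five concentrations; endpoints were interpolated linearly between bracketing concentrations, or set to the highest concentration if not reached. GI50 = concentration required for 50% inhibition of growth.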 Activity calls are given as the source filed them. No stated cut-off is given here; in the data, active = GI50 up to about 1.1 µM and inactive = higher.

Assays:
Test in all cases: NCI anticancer screen, dose series, 48 h
RPMI-8226 = tested on: RPMI-8226
DU-145 = tested on: DU-145
EKVX = tested on: EKVX
MOLT-4 = tested on: MOLT-4
MDA-MB-435 = tested on: MDA-MB-435
NCI-H226 = tested on: NCI-H226
CCRF-CEM = tested on: CCRF-CEM
MDA-N = tested on: MDA-N
BT-549 = tested on: BT-549
NCI/ADR-RES = tested on: NCI/ADR-RES
OVCAR-3 = tested on: OVCAR-3
HT-29 = tested on: HT-29
HCT-116 = tested on: HCT-116
SF-539 = tested on: SF-539
UACC-62 = tested on: UACC-62
NCI-H23 = tested on: NCI-H23
TK-10 = tested on: TK-10
OVCAR-8 = tested on: OVCAR-8
T47D = tested on: T47D
U-251 = tested on: U-251

Compound | GI50 (RPMI-8226) | GI50 (DU-145) | GI50 (EKVX) | GI50 (MOLT-4) | GI50 (MDA-MB-435) | GI50 (NCI-H226) | GI50 (CCRF-CEM) | GI50 (MDA-N) | GI50 (BT-549) | GI50 (NCI/ADR-RES) | GI50 (OVCAR-3) | GI50 (HT-29) | GI50 (HCT-116) | GI50 (SF-539) | GI50 (UACC-62) | GI50 (NCI-H23) | GI50 (TK-10) | GI50 (OVCAR-8) | GI50 (T47D) | GI50 (U-251)
Cc1occc1/C(S)=N\c1ccc(Cl)c(C(=O)OCC2CC2)c1 | 23.1 µM (inactive) | 73.3 µM (inactive) | 35 µM (inactive) | 14.9 µM (inactive) | 75.3 µM (inactive) | 53.2 µM (inactive) | 20.7 µM (inactive) | 41.6 µM (inactive) | 22.7 µM (inactive) | 33.3 µM (inactive) | 52.2 µM (inactive) | 34.7 µM (inactive) | 43.9 µM (inactive) | 51.6 µM (inactive) | 31.3 µM (inactive) | 58.6 µM (inactive) | 34.8 µM (inactive) | 39.9 µM (inactive) | 35 µM (inactive) | 95.3 µM (inactive)
COC(=O)c1c(C)[nH]c2c1C(=O)C(=O)c1nc(C)c(C)nc1-2 | 10.2 µM (inactive) | 6.04 µM (inactive) | 8.69 µM (inactive) | 7.66 µM (inactive) | 10.7 µM (inactive) | 11.8 µM (inactive) | 5.04 µM (inactive) | 5.37 µM (inactive) | 10.9 µM (inactive) | 12.7 µM (inactive) | 9.79 µM (inactive) | 14 µM (inactive) | 4.28 µM (inactive) | 10.4 µM (inactive) | 4.41 µM (inactive) | 10.2 µM (inactive) | 3.6 µM (inactive) | 10.2 µM (inactive) | 0.162 µM (active) | 4.84 µM (inactive)
ClCCCSSCCCCl | 31 µM (inactive) | 43.1 µM (inactive) | 74 µM (inactive) | 2.06 µM (inactive) | 24.3 µM (inactive) | > 79.4 µM (inactive) | 5.08 µM (inactive) | 19.9 µM (inactive) | 21.5 µM (inactive) | 34.4 µM (inactive) | 36.6 µM (inactive) | 27.4 µM (inactive) | 25.7 µM (inactive) | 20.7 µM (inactive) | 30.3 µM (inactive) | 38.3 µM (inactive) | > 59.4 µM (inactive) | 23.6 µM (inactive) | > 100 µM (inactive) | 42 µM (inactive)
C=C1C(=O)O[C@H]2C[C@@]3(C)[C@H](O)CCC(=C)[C@@H]3[C@@H](OC(C)=O)[C@H]12 | 5 µM (inactive) | 10.9 µM (inactive) | 15.5 µM (inactive) | 3.13 µM (inactive) | 15.5 µM (inactive) | 15.2 µM (inactive) | 1 µM (active) | 4.31 µM (inactive) | 7.33 µM (inactive) | 21.8 µM (inactive) | 12.3 µM (inactive) | 5.92 µM (inactive) | 3.66 µM (inactive) | 0.409 µM (active) | 15.9 µM (inactive) | 10.7 µM (inactive) | 6.15 µM (inactive) | 18.7 µM (inactive) | 4.65 µM (inactive) | 20.2 µM (inactive)
